Results as given in ChEMBL document CHEMBL1201862, “PubChem BioAssay data set” (2004).
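Step 1: Grow cells in 96-well plates. Step 2: Expose to compound for 48 hours at 5 concentrations. Step 3: Interpolate endpoints linearly; if unreached, use highest concentration. GI50: concentration for 50% inhibition of growth.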 The source made the active and inactive calls. Rule as the data show it: active = GI50 up to about 1.1 µM and inactive = higher.

Experiments:
Experiment in all cases: inhibition of tumour cell growth, NCI panel, 48 h
786-0 = system: 786-0
A549 = system: A549
HOP-62 = system: HOP-62
HT-29 = system: HT-29
Hs-578T = system: Hs-578T
IGROV-1 = system: IGROV-1
M14 = system: M14
MDA-N = system: MDA-N
NCI-H23 = system: NCI-H23
OVCAR-3 = system: OVCAR-3
PC-3 = system: PC-3
SF-539 = system: SF-539
SK-MEL-2 = system: SK-MEL-2
SNB-75 = system: SNB-75
TK-10 = system: TK-10
UACC-62 = system: UACC-62
UO-31 = system: UO-31
A498 = system: A498
EKVX = system: EKVX

| SMILES | GI50 (786-0) | GI50 (A549) | GI50 (HOP-62) | GI50 (HT-29) | GI50 (Hs-578T) | GI50 (IGROV-1) | GI50 (M14) | GI50 (MDA-N) | GI50 (NCI-H23) | GI50 (OVCAR-3) | GI50 (PC-3) | GI50 (SF-539) | GI50 (SK-MEL-2) | GI50 (SNB-75) | GI50 (TK-10) | GI50 (UACC-62) | GI50 (UO-31) | GI50 (A498) | GI50 (EKVX) |
| --- | --- | --- | --- | --- | --- | --- | --- | --- | --- | --- | --- | --- | --- | --- | --- | --- | --- | --- | --- |
| O=C(O)c1cc2ccccc2c2c1C(=O)c1ccccc1-2 | > 100 µM (inactive) | 75.9 µM (inactive) | 20.7 µM (inactive) | > 100 µM (inactive) | > 100 µM (inactive) | 58.7 µM (inactive) | 46.7 µM (inactive) | > 100 µM (inactive) | > 100 µM (inactive) | 50 µM (inactive) | > 100 µM (inactive) | > 100 µM (inactive) | > 100 µM (inactive) | > 100 µM (inactive) | > 100 µM (inactive) | 45.9 µM (inactive) | 46 µM (inactive) | – | – |
| CCC(c1nc2ccccc2c(=O)n1NC(=O)C(C)(C)C)C1(O)CCCCC1 (stereo unspecified) | > 100 µM (inactive) | > 100 µM (inactive) | > 100 µM (inactive) | > 100 µM (inactive) | > 100 µM (inactive) | > 100 µM (inactive) | > 100 µM (inactive) | > 100 µM (inactive) | > 100 µM (inactive) | > 100 µM (inactive) | > 100 µM (inactive) | > 100 µM (inactive) | > 100 µM (inactive) | > 100 µM (inactive) | – | > 100 µM (inactive) | > 100 µM (inactive) | > 100 µM (inactive) | > 100 µM (inactive) |
| C=C(CCOC)CCC1CCCCC(CN(C)C)C1=O (stereo unspecified) | > 100 µM (inactive) | > 100 µM (inactive) | > 100 µM (inactive) | > 100 µM (inactive) | > 100 µM (inactive) | > 100 µM (inactive) | > 100 µM (inactive) | > 100 µM (inactive) | > 100 µM (inactive) | > 100 µM (inactive) | > 100 µM (inactive) | – | > 100 µM (inactive) | > 100 µM (inactive) | – | > 100 µM (inactive) | > 100 µM (inactive) | > 100 µM (inactive) | > 100 µM (inactive) |
| Clc1ccccc1-c1nc2cc(C34CC5CC(CC(C5)C3)C4)ccc2[nH]1 | 12.1 µM (inactive) | 11.4 µM (inactive) | 14.3 µM (inactive) | 11.4 µM (inactive) | 28.8 µM (inactive) | 17.3 µM (inactive) | 19.8 µM (inactive) | 44 µM (inactive) | 14.4 µM (inactive) | – | 15.1 µM (inactive) | – | 15 µM (inactive) | 5.71 µM (inactive) | 19.1 µM (inactive) | 13.9 µM (inactive) | 14.7 µM (inactive) | 25 µM (inactive) | 29.1 µM (inactive) |
| Clc1ccc(CCN[C@H]2CCCC[C@H]2N2CCCC2)cc1Cl | 24 µM (inactive) | 26.4 µM (inactive) | 20 µM (inactive) | 9.1 µM (inactive) | 39.6 µM (inactive) | 16.8 µM (inactive) | 15.3 µM (inactive) | 16.2 µM (inactive) | 23.8 µM (inactive) | 19.6 µM (inactive) | 27.9 µM (inactive) | 28.4 µM (inactive) | 20.8 µM (inactive) | – | 7.19 µM (inactive) | 17.8 µM (inactive) | 13.6 µM (inactive) | 15.8 µM (inactive) | 57.8 µM (inactive) |
| O=C(OC[C@H]1C[C@H]2C(=O)OCCC[C@H]2O1)c1ccccc1 | > 100 µM (inactive) | > 100 µM (inactive) | > 100 µM (inactive) | > 100 µM (inactive) | > 100 µM (inactive) | > 100 µM (inactive) | > 100 µM (inactive) | > 100 µM (inactive) | > 100 µM (inactive) | > 100 µM (inactive) | > 100 µM (inactive) | – | > 100 µM (inactive) | > 100 µM (inactive) | > 100 µM (inactive) | > 100 µM (inactive) | > 100 µM (inactive) | > 100 µM (inactive) | > 100 µM (inactive) |
| C/C1=C/C2=CC(C)C[C@@H]2C(=O)[C@]2(C)C(=O)CC(C)(C)[C@H]2CC1=O (stereo partly specified) | > 50 µM (inactive) | > 50 µM (inactive) | – | > 50 µM (inactive) | > 50 µM (inactive) | > 50 µM (inactive) | > 50 µM (inactive) | > 50 µM (inactive) | > 50 µM (inactive) | > 50 µM (inactive) | > 50 µM (inactive) | > 50 µM (inactive) | > 50 µM (inactive) | > 50 µM (inactive) | > 50 µM (inactive) | > 50 µM (inactive) | > 50 µM (inactive) | > 50 µM (inactive) | > 50 µM (inactive) |
| CCOc1ccc(N/C(=C(/C(Cl)=C(/Cl)N(CC)CC)[N+](=O)[O-])n2nnc3ccccc32)cc1 | 17.2 µM (inactive) | 34.4 µM (inactive) | 30.7 µM (inactive) | 26.4 µM (inactive) | 47.6 µM (inactive) | – | 31.8 µM (inactive) | 26.7 µM (inactive) | 17.2 µM (inactive) | 5.24 µM (inactive) | 17.5 µM (inactive) | 23.2 µM (inactive) | 28.2 µM (inactive) | 20.3 µM (inactive) | – | 13.1 µM (inactive) | 19.6 µM (inactive) | 15 µM (inactive) | 23.3 µM (inactive) |
| COc1cc2c(cc1OC)C13CCN4CC5=CCOC6CC(=O)N2C1C6C5CC43O (stereo unspecified) | > 100 µM (inactive) | > 100 µM (inactive) | – | > 100 µM (inactive) | > 100 µM (inactive) | > 100 µM (inactive) | > 100 µM (inactive) | > 100 µM (inactive) | > 100 µM (inactive) | > 100 µM (inactive) | > 100 µM (inactive) | > 100 µM (inactive) | > 100 µM (inactive) | > 100 µM (inactive) | > 100 µM (inactive) | > 100 µM (inactive) | > 100 µM (inactive) | > 100 µM (inactive) | > 100 µM (inactive) |
| COC(=O)c1nc(-c2nc(CCNC(=O)OC(C)(C)C)sc2Cl)sc1Cl | > 100 µM (inactive) | > 100 µM (inactive) | 32.6 µM (inactive) | > 100 µM (inactive) | > 100 µM (inactive) | > 100 µM (inactive) | 32.1 µM (inactive) | 49.9 µM (inactive) | 44.7 µM (inactive) | 68.9 µM (inactive) | 28.1 µM (inactive) | > 100 µM (inactive) | – | 23.1 µM (inactive) | > 100 µM (inactive) | 35.3 µM (inactive) | 89.7 µM (inactive) | 94.6 µM (inactive) | > 100 µM (inactive) |
| Cc1nc2cccc(F)c2c(=O)n1-c1nnc(C(F)(F)F)s1 | > 10 µM (inactive) | > 10 µM (inactive) | > 10 µM (inactive) | > 10 µM (inactive) | > 10 µM (inactive) | > 10 µM (inactive) | > 10 µM (inactive) | > 10 µM (inactive) | > 10 µM (inactive) | > 10 µM (inactive) | > 10 µM (inactive) | > 10 µM (inactive) | > 10 µM (inactive) | > 10 µM (inactive) | > 10 µM (inactive) | > 10 µM (inactive) | > 10 µM (inactive) | – | > 10 µM (inactive) |
| O=C1CC(O)c2c1csc2Br (stereo unspecified) | 17.9 µM (inactive) | 28.4 µM (inactive) | 73.6 µM (inactive) | 33.3 µM (inactive) | 26.6 µM (inactive) | 13.5 µM (inactive) | 18.2 µM (inactive) | 22.5 µM (inactive) | 21.9 µM (inactive) | 19.3 µM (inactive) | 32.4 µM (inactive) | – | 34.2 µM (inactive) | 26.4 µM (inactive) | 8.97 µM (inactive) | 22.7 µM (inactive) | 19.8 µM (inactive) | – | 48.2 µM (inactive) |
| CN(C)c1ccc(/C=C(\NC(=O)c2ccccc2)C2NC(Cc3c[nH]c4ccccc34)C(=O)O2)cc1 (stereo unspecified) | 12.2 µM (inactive) | 5.16 µM (inactive) | 41.2 µM (inactive) | 3.25 µM (inactive) | 11.2 µM (inactive) | 5.37 µM (inactive) | 42.2 µM (inactive) | 34.8 µM (inactive) | 14 µM (inactive) | 60.8 µM (inactive) | 27.4 µM (inactive) | – | 27.3 µM (inactive) | 39.4 µM (inactive) | – | > 82.6 µM (inactive) | 17.3 µM (inactive) | > 93.1 µM (inactive) | 8.99 µM (inactive) |
| COC(=O)c1sc2c(c1C(=O)OC)/C(=N/C(C)(C)C)S/C2=N\C(C)(C)C | 15 µM (inactive) | 17.4 µM (inactive) | 19.6 µM (inactive) | 16.4 µM (inactive) | 25.7 µM (inactive) | 19.6 µM (inactive) | 16.7 µM (inactive) | 17.9 µM (inactive) | 18.8 µM (inactive) | 20.3 µM (inactive) | 19.1 µM (inactive) | 16.6 µM (inactive) | 17.1 µM (inactive) | – | 17.2 µM (inactive) | 17 µM (inactive) | 0.14 µM (active) | 17.8 µM (inactive) | 16.3 µM (inactive) |
| COc1ccc(C2OC(N)=C(C#N)C3=C2CCCC3C)cc1OC (stereo unspecified) | > 100 µM (inactive) | – | – | > 100 µM (inactive) | > 100 µM (inactive) | > 100 µM (inactive) | > 100 µM (inactive) | > 100 µM (inactive) | > 100 µM (inactive) | > 100 µM (inactive) | > 100 µM (inactive) | > 100 µM (inactive) | > 100 µM (inactive) | 23.8 µM (inactive) | > 100 µM (inactive) | > 100 µM (inactive) | > 100 µM (inactive) | > 100 µM (inactive) | > 100 µM (inactive) |
| Fc1ccc(C(OCCN2CCN(CCCCl)CC2)c2ccc(F)cc2)cc1 | 28.4 µM (inactive) | 35.5 µM (inactive) | 33 µM (inactive) | 17 µM (inactive) | 29.9 µM (inactive) | 26 µM (inactive) | 18.9 µM (inactive) | 20.7 µM (inactive) | 22.3 µM (inactive) | 25.8 µM (inactive) | 34.8 µM (inactive) | 18.7 µM (inactive) | 24.2 µM (inactive) | – | 36.7 µM (inactive) | 19.1 µM (inactive) | 18.4 µM (inactive) | 20.9 µM (inactive) | 41.1 µM (inactive) |
